This passage reports Ki results from US10988459B2 (priority 2015, dated 2021).

The target in this assay is human RIP1 kinase domain (2-375) (Homo sapiens (Human), UniProt Q13546). The assay can be described thus: biochemical. Format: biochemical. The settings on record: human RIP1 kinase domain (2-375), Transcreener ADP assay, 50 uM ATP, 2 hours incubation; read-out: RIP1 Ki. Summed up: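 50 nM purified kinase domain from baculovirus-infected insect cells, incubated 2 h with compound in 50 mM Hepes pH 7.5, 30 mM MgCl2, 1 mM DTT, 50 uM ATP, 0.002% Brij-35, 0.5% DMSO. ADP formation read by Transcreener FP at 633 nm excitation. Ki^app fitted with the Morrison tight-binding equation.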
human RIP1 kinase domain (2-375), sequence (Q13546 2-375): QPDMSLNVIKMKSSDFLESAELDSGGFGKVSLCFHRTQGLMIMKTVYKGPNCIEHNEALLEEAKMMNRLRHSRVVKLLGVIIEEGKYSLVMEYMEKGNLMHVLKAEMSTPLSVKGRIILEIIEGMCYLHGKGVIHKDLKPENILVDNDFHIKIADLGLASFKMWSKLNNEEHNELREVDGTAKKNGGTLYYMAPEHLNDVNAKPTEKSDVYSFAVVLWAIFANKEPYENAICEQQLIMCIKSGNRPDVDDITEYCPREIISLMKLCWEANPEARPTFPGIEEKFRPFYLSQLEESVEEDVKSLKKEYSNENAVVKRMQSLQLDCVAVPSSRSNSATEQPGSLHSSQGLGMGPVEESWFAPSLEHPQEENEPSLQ

For `CN1C(=O)[C@@H](NC(=O)c2ncn(Cc3cc(F)ccc3F)n2)CCn2nc(C3CC3)cc21` [Example 304, (S)—N-(2-cyclopropyl-4-methyl-5-oxo-5,6,7,8-tetrahydro-4H-pyrazolo[1,5-a][1,3]diazepin-6-yl)-1-(2,5-difluorobenzyl)-1H-1,2,4-triazole-3-carboxamide], the Ki amounted to 10.3 nM.
For `Cc1cc2n(n1)CC[C@H](NC(=O)c1ncn(Cc3cc(F)ccc3F)n1)C(=O)N2C` [Example 305, (S)-1-(2,5-difluorobenzyl)-N-(2,4-dimethyl-5-oxo-5,6,7,8-tetrahydro-4H-pyrazolo[1,5-a][1,3]diazepin-6-yl)-1H-1,2,4-triazole-3-carboxamide] the value was 15 nM.
For `CN1C(=O)[C@@H](NC(=O)c2ncn(Cc3cccc(Cl)c3Cl)n2)CCn2nc(C3CC3)cc21` [Example 306, (S)—N-(2-cyclopropyl-4-methyl-5-oxo-5,6,7,8-tetrahydro-4H-pyrazolo[1,5-a][1,3]diazepin-6-yl)-1-(2,3-dichlorobenzyl)-1H-1,2,4-triazole-3-carboxamide] the value was 14.6 nM.
`CN1C(=O)[C@@H](NC(=O)c2ncn(Cc3ccc(Cl)cc3Cl)n2)CCn2nc(C3CC3)cc21` [Example 307, (S)—N-(2-cyclopropyl-4-methyl-5-oxo-5,6,7,8-tetrahydro-4H-pyrazolo[1,5-a][1,3]diazepin-6-yl)-1-(2,4-dichlorobenzyl)-1H-1,2,4-triazole-3-carboxamide]: the Ki is 8.5 nM.
For `CN1C(=O)[C@@H](NC(=O)c2ncn(CC3(C)CC3)n2)CCn2nc(C3CC3)cc21` [Example 308, (S)—N-(2-cyclopropyl-4-methyl-5-oxo-5,6,7,8-tetrahydro-4H-pyrazolo[1,5-a][1,3]diazepin-6-yl)-1-((1-methylcyclopropyl)methyl)-1H-1,2,4-triazole-3-carboxamide] the value was 172 nM; for `CCCC1(C)OCc2cnc(C(=O)N[C@H]3COc4ccccc4N(C)C3=O)nc21` (stereo partly drawn) [Example 309, 7-methyl-N—((S)-5-methyl-4-oxo-2,3,4,5-tetrahydrobenzo[b][1,4]oxazepin-3-yl)-7-propyl-5,7-dihydrofuro[3,4-d]pyrimidine-2-carboxamide], 52.8 nM.
For `CCC1(C)OCc2cnc(C(=O)N[C@H]3COc4ccccc4N(C)C3=O)nc21` (stereo partly drawn) [Example 310, 7-ethyl-7-methyl-N—((S)-5-methyl-4-oxo-2,3,4,5-tetrahydrobenzo[b][1,4]oxazepin-3-yl)-5,7-dihydrofuro[3,4-d]pyrimidine-2-carboxamide] the value was 37.2 nM; for `CN1C(=O)[C@@H](NC(=O)c2ncn(Cc3cccc(F)c3F)n2)CCn2nc([C@H]3CC3(F)F)cc21` [Example 311, 1-(2,3-difluorobenzyl)-N—((S)-2-((R)-2,2-difluorocyclopropyl)-4-methyl-5-oxo-5,6,7,8-tetrahydro-4H-pyrazolo[1,5-a][1,3]diazepin-6-yl)-1H-1,2,4-triazole-3-carboxamide], 5250 nM.
`CN1C(=O)[C@H](NC(=O)c2ncn(Cc3cccc(F)c3F)n2)CCn2nc([C@H]3CC3(F)F)cc21` [Example 312, 1-(2,3-difluorobenzyl)-N—((R)-2-((R)-2,2-difluorocyclopropyl)-4-methyl-5-oxo-5,6,7,8-tetrahydro-4H-pyrazolo[1,5-a][1,3]diazepin-6-yl)-1H-1,2,4-triazole-3-carboxamide]: the Ki was determined as 17.8 nM.
For `CN1C(=O)[C@@H](NC(=O)c2ncn(Cc3ccc(F)c(F)c3)n2)CCn2nc([C@H]3CC3(F)F)cc21` [Example 313, 1-(3,4-difluorobenzyl)-N—((S)-2-((R)-2,2-difluorocyclopropyl)-4-methyl-5-oxo-5,6,7,8-tetrahydro-4H-pyrazolo[1,5-a][1,3]diazepin-6-yl)-1H-1,2,4-triazole-3-carboxamide] the value was 5940 nM.
For `CN1C(=O)[C@H](NC(=O)c2ncn(Cc3ccc(F)c(F)c3)n2)CCn2nc([C@H]3CC3(F)F)cc21` [Example 314, 1-(3,4-difluorobenzyl)-N—((R)-2-((R)-2,2-difluorocyclopropyl)-4-methyl-5-oxo-5,6,7,8-tetrahydro-4H-pyrazolo[1,5-a][1,3]diazepin-6-yl)-1H-1,2,4-triazole-3-carboxamide] the value was 43.5 nM.
The figure for `CN1C(=O)[C@@H](NC(=O)c2ncn(Cc3ccc(F)cc3F)n2)CCn2nc([C@H]3CC3(F)F)cc21` [Example 315, 1-(2,4-difluorobenzyl)-N—((S)-2-((R)-2,2-difluorocyclopropyl)-4-methyl-5-oxo-5,6,7,8-tetrahydro-4H-pyrazolo[1,5-a][1,3]diazepin-6-yl)-1H-1,2,4-triazole-3-carboxamide] is 9500 nM.
In the case of `CN1C(=O)[C@H](NC(=O)c2ncn(Cc3ccc(F)cc3F)n2)CCn2nc([C@H]3CC3(F)F)cc21` [Example 316, 1-(2,4-difluorobenzyl)-N—((R)-2-((R)-2,2-difluorocyclopropyl)-4-methyl-5-oxo-5,6,7,8-tetrahydro-4H-pyrazolo[1,5-a][1,3]diazepin-6-yl)-1H-1,2,4-triazole-3-carboxamide], the Ki was found to be 31.8 nM.
For `CN1C(=O)[C@@H](NC(=O)c2ncn(Cc3ccc(F)cc3)n2)CCn2nc([C@H]3CC3(F)F)cc21` [Example 317, N—((S)-2-((R)-2,2-difluorocyclopropyl)-4-methyl-5-oxo-5,6,7,8-tetrahydro-4-pyrazolo[1,5-a][1,3]diazepin-6-yl)-1-(4-fluorobenzyl)-1H-1,2,4-triazole-3-carboxamide] the value was 6610 nM; for `CN1C(=O)[C@H](NC(=O)c2ncn(Cc3ccc(F)cc3)n2)CCn2nc([C@H]3CC3(F)F)cc21` [Example 318, N—((R)-2-((R)-2,2-difluorocyclopropyl)-4-methyl-5-oxo-5,6,7,8-tetrahydro-4H-pyrazolo[1,5-a][1,3]diazepin-6-yl)-1-(4-fluorobenzyl)-1H-1,2,4-triazole-3-carboxamide], 25.3 nM.
The figure for `CC[C@]1(C)OCc2cnc(C(=O)N[C@H]3CCn4nc([C@H]5CC5(F)F)cc4N(C)C3=O)cc21` [Example 319, (S)—N—((S)-2-((R)-2,2-difluorocyclopropyl)-4-methyl-5-oxo-5,6,7,8-tetrahydro-4H-pyrazolo[1,5-a][1,3]diazepin-6-yl)-1-ethyl-1-methyl-1,3-dihydrofuro[3,4-c]pyridine-6-carboxamide] is more than 10000 nM.
For `CN1C(=O)[C@@H](NC(=O)c2ncn(Cc3cccc(F)c3F)n2)CCn2nc([C@@H]3CC3(F)F)cc21` [Example 320, 1-(2,3-difluorobenzyl)-N—((S)-2-((S)-2,2-difluorocyclopropyl)-4-methyl-5-oxo-5,6,7,8-tetrahydro-4H-pyrazolo[1,5-a][1,3]diazepin-6-yl)-1H-1,2,4-triazole-3-carboxamide] the value was 16.4 nM.
For the compound `CN1C(=O)[C@@H](NC(=O)c2ncn(Cc3ccc(F)c(F)c3)n2)CCn2nc([C@@H]3CC3(F)F)cc21` [Example 321, 1-(3,4-difluorobenzyl)-N—((S)-2-((S)-2,2-difluorocyclopropyl)-4-methyl-5-oxo-5,6,7,8-tetrahydro-4H-pyrazolo[1,5-a][1,3]diazepin-6-yl)-1H-1,2,4-triazole-3-carboxamide], the Ki was 67 nM.
Turning to `CN1C(=O)[C@@H](NC(=O)c2ncn(Cc3ccc(F)cc3F)n2)CCn2nc([C@@H]3CC3(F)F)cc21` [Example 322, 1-(2,4-difluorobenzyl)-N—((S)-2-((S)-2,2-difluorocyclopropyl)-4-methyl-5-oxo-5,6,7,8-tetrahydro-4H-pyrazolo[1,5-a][1,3]diazepin-6-yl)-1H-1,2,4-triazole-3-carboxamide], the Ki stood at 28.6 nM.
In the case of `CN1C(=O)[C@@H](NC(=O)c2ncn(Cc3ccc(F)cc3)n2)CCn2nc([C@@H]3CC3(F)F)cc21` [Example 323, N—((S)-2-((S)-2,2-difluorocyclopropyl)-4-methyl-5-oxo-5,6,7,8-tetrahydro-4H-pyrazolo[1,5-a][1,3]diazepin-6-yl)-1-(4-fluorobenzyl)-1H-1,2,4-triazole-3-carboxamide], the Ki is 57.8 nM.
The figure for `CC[C@@]1(C)OCc2cnc(C(=O)N[C@@H]3CCn4nc([C@H]5CC5(F)F)cc4N(C)C3=O)cc21` [Example 324, (R)—N—((R)-2-((R)-2,2-difluorocyclopropyl)-4-methyl-5-oxo-5,6,7,8-tetrahydro-4H-pyrazolo[1,5-a][1,3]diazepin-6-yl)-1-ethyl-1-methyl-1,3-dihydrofuro[3,4-c]pyridine-6-carboxamide] is 1290 nM; for `CC[C@@]1(C)OCc2cnc(C(=O)N[C@H]3CCn4nc([C@@H]5CC5(F)F)cc4N(C)C3=O)cc21` [Example 325, (R)—N—((S)-2-((S)-2,2-difluorocyclopropyl)-4-methyl-5-oxo-5,6,7,8-tetrahydro-4H-pyrazolo[1,5-a][1,3]diazepin-6-yl)-1-ethyl-1-methyl-1,3-dihydrofuro[3,4-c]pyridine-6-carboxamide] it is 3340 nM.
The figure for `CCC1(C)OCc2cnc(C(=O)N[C@H]3CCn4nc(C)cc4N(C)C3=O)nc21` (stereo partly drawn) [Example 326, N—((S)-2,4-dimethyl-5-oxo-5,6,7,8-tetrahydro-4H-pyrazolo[1,5-a][1,3]diazepin-6-yl)-7-ethyl-7-methyl-5,7-dihydrofuro[3,4-d]pyrimidine-2-carboxamide] is 618 nM.
The figure for `CN1C(=O)[C@@H](NC(=O)c2cc(C3(O)CCC3)ccn2)COc2ccccc21` [Example 327, (S)-4-(1-hydroxycyclobutyl)-N-(5-methyl-4-oxo-2,3,4,5-tetrahydrobenzo[b][1,4]oxazepin-3-yl)picolinamide] is 1370 nM; for `CN1C(=O)[C@@H](NC(=O)c2cc(C3(O)CCCC3)ccn2)COc2ccccc21` [Example 328, (S)-4-(1-hydroxycyclopentyl)-N-(5-methyl-4-oxo-2,3,4,5-tetrahydrobenzo[b][1,4]oxazepin-3-yl)picolinamide] it is 990 nM.
